Four compounds from the NIST ThermoML archive (doi:10.1021/je900722m) can be followed below.

The term mass density denotes the mass of a sample divided by its volume. As a reminder, the viscosity is the resistance of a fluid to flow.

The conditions of this series: 101.33 kPa, Liquid.

Numbers after ± are expanded uncertainties.

Turning to `CC(C)CO` [2-methyl-1-propanol], the mass density was 794.064 ± 0.46 kg/m3 (303.15 K); 790.123 ± 0.46 kg/m3 (308.15 K); 786.12 ± 0.47 kg/m3 (313.15 K); 782.061 ± 0.48 kg/m3 (318.15 K); 777.932 ± 0.48 kg/m3 (323.15 K); 773.732 ± 0.49 kg/m3 (328.15 K). For the same compound, the mass density reads like this: (333.15 K) 769.448 ± 0.5 kg/m3; (338.15 K) 765.079 ± 0.51 kg/m3; (343.15 K) 760.611 ± 0.51 kg/m3. Further, the viscosity was found to be 2.649 ± 0.045 mPa·s (303.15 K); 2.28 ± 0.039 mPa·s (308.15 K); 1.965 ± 0.034 mPa·s (313.15 K); 1.692 ± 0.03 mPa·s (318.15 K); 1.482 ± 0.026 mPa·s (323.15 K); 1.268 ± 0.023 mPa·s (328.15 K). Further, the viscosity stood at 1.116 ± 0.02 mPa·s (333.15 K), 0.9851 ± 0.019 mPa·s (338.15 K) and 0.8767 ± 0.017 mPa·s (343.15 K).
Turning to `CC(C)(C)O` [2-methylpropan-2-ol], the mass density runs as follows: (308.15 K) 770.365 ± 0.5 kg/m3; (313.15 K) 765.07 ± 0.51 kg/m3; (318.15 K) 759.675 ± 0.52 kg/m3; (323.15 K) 754.193 ± 0.53 kg/m3; (328.15 K) 748.621 ± 0.54 kg/m3; (333.15 K) 742.954 ± 0.55 kg/m3. Also, the mass density came out at 737.19 ± 0.56 kg/m3 (338.15 K) and 731.313 ± 0.56 kg/m3 (343.15 K). Besides, the viscosity reads like this: (308.15 K) 2.69 ± 0.046 mPa·s; (313.15 K) 2.142 ± 0.037 mPa·s; (318.15 K) 1.737 ± 0.03 mPa·s; (323.15 K) 1.428 ± 0.025 mPa·s; (328.15 K) 1.196 ± 0.022 mPa·s; (333.15 K) 1.016 ± 0.019 mPa·s. Also, the viscosity by setting is: (338.15 K) 0.8734 ± 0.017 mPa·s; (343.15 K) 0.7603 ± 0.016 mPa·s.
On to `CCCCO` [butan-1-ol], for which the mass density (303.15 K) was determined as 802.213 ± 0.44 kg/m3; the mass density (308.15 K) stood at 798.343 ± 0.45 kg/m3; the mass density (313.15 K) turned out to be 794.425 ± 0.45 kg/m3; the mass density (318.15 K) was 790.465 ± 0.46 kg/m3; the mass density (323.15 K) is reported as 786.456 ± 0.47 kg/m3; the mass density (328.15 K) was found to be 782.399 ± 0.47 kg/m3. The mass density is, setting by setting: (333.15 K) 778.281 ± 0.48 kg/m3; (338.15 K) 774.098 ± 0.49 kg/m3; (343.15 K) 769.845 ± 0.49 kg/m3. The viscosity came out at 2.296 ± 0.039 mPa·s (303.15 K); 2.025 ± 0.035 mPa·s (308.15 K); 1.795 ± 0.031 mPa·s (313.15 K); 1.595 ± 0.028 mPa·s (318.15 K); 1.417 ± 0.025 mPa·s (323.15 K); 1.271 ± 0.023 mPa·s (328.15 K). Moreover, the viscosity (333.15 K) was 1.138 ± 0.021 mPa·s, the viscosity (338.15 K) is reported as 1.028 ± 0.019 mPa·s and the viscosity (343.15 K) came out at 0.9306 ± 0.018 mPa·s.
Regarding `CCC(C)O` (stereo not given) [butan-2-ol], the mass density by setting is: (303.15 K) 798.351 ± 0.48 kg/m3; (308.15 K) 794.052 ± 0.48 kg/m3; (313.15 K) 789.658 ± 0.49 kg/m3; (318.15 K) 785.159 ± 0.5 kg/m3; (323.15 K) 780.552 ± 0.51 kg/m3; (328.15 K) 775.832 ± 0.51 kg/m3. The mass density was determined as 770.993 ± 0.52 kg/m3 (333.15 K), 766.038 ± 0.53 kg/m3 (338.15 K) and 760.962 ± 0.54 kg/m3 (343.15 K). The viscosity (303.15 K) was determined as 2.607 ± 0.045 mPa·s; the viscosity (308.15 K) was 2.163 ± 0.037 mPa·s; the viscosity (313.15 K) is recorded as 1.84 ± 0.032 mPa·s; the viscosity (318.15 K) is given as 1.557 ± 0.028 mPa·s; the viscosity (323.15 K) was 1.333 ± 0.024 mPa·s; the viscosity (328.15 K) is on record as 1.151 ± 0.021 mPa·s. The viscosity (333.15 K) was 1.002 ± 0.019 mPa·s, the viscosity (338.15 K) turned out to be 0.8779 ± 0.017 mPa·s and the viscosity (343.15 K) is listed as 0.7769 ± 0.016 mPa·s.
